Laboratory results published in PMC12612973, “Inhibition of Human Amylin Aggregation: In Silico and In Vitro Studies” (ACS Omega, 2025).
Where two headings read alike, the source gives them in different places.

What was measured:
human amylin (hIAPP) [1] = target: T1, human amylin (hIAPP) (Homo sapiens, UniProt P10997); assay: Fluorescence quenching of amylin: Stern-Volmer, binding and thermodynamic analysis; conditions: for quenching of amylin's intrinsic fluorescence: compound 0 to 20 μM, excitation 275 nm; for Kd: read-out: K b (binding constant) (converted); for ΔH / ΔS: Van't Hoff plot, 25/30/37 °C
T1 construct: purchased Bachem USA
T1 sequence (P10997 34-70 limits assumed): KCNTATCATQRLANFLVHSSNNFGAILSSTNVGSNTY
Method: The fluorescence emission scans (wavelengths 290 to 500 nm) of 10-fold diluted amylin samples were acquired with a PerkinElmer model LS 55. The excitation wavelength was set at 275 nm to observe the fluorescence of the tyrosine residue exclusively. The integrated spectrum from 290 to 450 nm was used to obtain the relative fluorescence values of Tyr. Fluorescence measurements were performed in 1 cm light-path quartz cuvettes, with both excitation and emission bandwidths set to 5 nm. Sample fluorescence was determined by subtracting the fluorescence of the buffer. Each experiment was performed in duplicate. ,
Quenching titrations with acrylamide were carried out by adding varying amounts of a quencher stock solution (5 M) to the protein solution (∼15 μM diluted 10-fold). , The excitation wavelength was set at 275 nm, and the fluorescence emission spectra were scanned from 275 to 500 nm using a PerkinElmer model LS 55. The emission and excitation slits were set to 5 and 10 nm, respectively, and a 1 cm cuvette was used for all experiments. According to the Stern–Volmer equation, the integration area between 290 and 450 nm was used for data analysis. , Before analyzing the quenching data, the fluorescence emission spectra were corrected for volume changes, scattering effects, and the inner filter effect due to acrylamide absorption. , Each experiment was performed in duplicate. The quenching mechanism analysis by the Stern–Volmer equation was calculated according to eq . F 0 is the fluorescence intensity without the quencher, and F is the intensity with a quencher. K sv is the Stern–Volmer quenching constant, while Q is the quencher concentration. K q is the biomolecular quenching constant, and τ0 is the average lifetime of the fluorophore. 1 F0/F=1+Ksv[Q]=1+Kqτ0[Q]
The parameter n obtained from the fit is treated as an apparent slope/exponent (heterogeneous populations and partial fluorophore accessibility) and is not interpreted as the literal number of binding sites. 2 log(F0−F)/F=logKb+nlog[Q]
The Van’t Hoff equation was used to calculate the various thermodynamic interaction parameters. Equation was implemented to calculate the free energy change. 3 lnKb=−ΔH^°/RT+ΔS^°/R 4 ΔG^°=ΔH^°−TΔS^°=−RTlnKb

human amylin (hIAPP) [2] = target: T1, human amylin (hIAPP); assay: Thioflavin T (ThT) fluorescence assay of amylin aggregation; type: biochemical; conditions: for ThT inhibition % (mean ± SEM): compound 10 μM, amylin 15 μM, 36 h incubation, 3 trials; for inhibition at 10 µM: read-out: ThT inhibition % (mean ± SEM), compound 10 μM, amylin 15 μM, 36 h incubation, 3 trials
Method: A stock solution of amylin (1 mM) (purchased from Bachem USA), peptide sequence: […] amide (with disulfide bond between Cys2 and Cys7), was prepared in 100% hexafluoroisopropyl alcohol (HFIP) (purchased from Sigma-Aldrich) and stored at −20 °C. , Aliquots of amylin peptide were filtered through a 0.22 μm filter from the stock solution and freeze-dried. For kinetic experiments, 15 μM of amylin was prepared in 50 mM Tris-HCl buffer (pH 7.4), as investigated in previous studies by Chaari et al., , Samples of amylin were prepared in the presence or absence of inhibitors. Each compound was dissolved in DMSO and further diluted with the buffer used to solubilize the amylin. The final mixture contained 15 μM amylin, 10 μM of the test compound, 2% DMSO or 15 μM amylin, and 2% DMSO without the compound (negative control). Also 15 μM amylin, 10 μM of oleuropein aglycone and 2% DMSO was used as a positive control. The prepared solutions were incubated under physiological conditions (pH 7.4 and 37 °C) for amylin aggregation. Samples were incubated for 36 h to test for amylin aggregation, and measurements were conducted at different time points.
Amylin aggregation was monitored by characteristic changes in Thioflavin T (ThT) fluorescence intensity. A ThT stock solution (15 μM) was prepared in deionized water at pH 7.4. The amylin samples were mixed with the ThT solution and allowed to incubate. ThT fluorescence was measured using the PerkinElmer model LS 55 fluorescence spectrophotometer (PerkinElmer, USA), with an excitation wavelength of 440 nm and an emission wavelength of 480 nm. ,− The emission and excitation slits were set to 5 nm, and a 1 cm cuvette was used for all experiments. Nonspecific background fluorescence was subtracted from the samples using appropriate blanks in the absence of proteins. Each experiment was performed in triplicate.

| SMILES | K q (quenching constant) (human amylin (hIAPP) [1]; 25 °C) | K sv (Stern–Volmer quenching constant) (human amylin (hIAPP) [1]; 25 °C) | n (apparent slope/exponent, binding sites) (human amylin (hIAPP) [1]; 25 °C) | ΔG (human amylin (hIAPP) [1]; 25 °C) | quenching of amylin's intrinsic fluorescence (human amylin (hIAPP) [1]; 25 °C) | Kd (human amylin (hIAPP) [1]; 25 °C) [µM] | K q (quenching constant) (human amylin (hIAPP) [1]; 30 °C) | K sv (Stern–Volmer quenching constant) (human amylin (hIAPP) [1]; 30 °C) | n (apparent slope/exponent, binding sites) (human amylin (hIAPP) [1]; 30 °C) | ΔG (human amylin (hIAPP) [1]; 30 °C) | Kd (human amylin (hIAPP) [1]; 30 °C) [µM] | K q (quenching constant) (human amylin (hIAPP) [1]; 37 °C) | K sv (Stern–Volmer quenching constant) (human amylin (hIAPP) [1]; 37 °C) | n (apparent slope/exponent, binding sites) (human amylin (hIAPP) [1]; 37 °C) | ΔG (human amylin (hIAPP) [1]; 37 °C) | Kd (human amylin (hIAPP) [1]; 37 °C) [µM] | ΔH (human amylin (hIAPP) [1]) [kcal/mol] | ΔS (human amylin (hIAPP) [1]) [J/mol K] | ThT inhibition % (mean ± SEM) (human amylin (hIAPP) [2]) [%] | inhibition at 10 µM (human amylin (hIAPP) [2]) [%] |
| --- | --- | --- | --- | --- | --- | --- | --- | --- | --- | --- | --- | --- | --- | --- | --- | --- | --- | --- | --- | --- |
| CC(C)(C)c1cccc(CNCC(O)CNCCC(c2ccccc2)c2ccccc2)c1 (stereo not shown) [Compound 18] | 5.80 ± 0.17 10^12 M^–1 s^–1 | 3.43 ± 0.21 10^4 M^–1 | 0.60 ± 0.12 | –5.99 ± 0.10 kJ/mol | substantial quenching | 2500 | 4.57 ± 0.11 10^12 M^–1 s^–1 | 2.70 ± 0.39 10^4 M^–1 | 0.75 ± 0.10 | –6.99 ± 0.20 kJ/mol | 769 | 3.90 ± 0.12 10^12 M^–1 s^–1 | 2.30 ± 0.18 10^4 M^–1 | 0.92 ± 0.10 | –8.38 ± 0.30 kJ/mol | 286 | 12.74 ± 1.17 | 199.00 ±14.13 | 91.5 ± 0.4 | > 88 |
| CC(C)(C)c1cccc(CNCC(O)CCNCCC(c2ccccc2)c2ccccc2)c1 (stereo not shown) [Compound 22] | 5.67 ± 0.16 10^12 M^–1 s^–1 | 3.35 ± 0.18 10^4 M^–1 | 0.80 ± 0.15 | –5.05 ± 0.27 kJ/mol | substantial quenching | 1000 | 3.89 ± 0.11 10^12 M^–1 s^–1 | 2.30 ± 0.27 10^4 M^–1 | 1.06 ± 0.10 | –7.19 ± 0.17 kJ/mol | 20.9 | 2.88 ± 0.12 10^12 M^–1 s^–1 | 1.70 ± 0.13 10^4 M^–1 | 1.15 ± 0.15 | –10.23 ± 0.41 kJ/mol | 10.7 | 29.637 ± 1.08 | 433.00 ± 9.13 | 89.3 ± 0.3 | > 88 |
